Target: PCSK9 (Homo sapiens, UniProt Q8NBP7)
Assay: 12 week monotherapy dose-ranging study, Framingham risk 10% or less (Example 24)
Type: in vivo
Design: endogenous in cells; host or cells: human subjects, in vivo
Method: Ezetimibe was not blinded. The end-of-study visit and the last estimation of lipids was at week 12 for subjects on Q4W IP schedule or on ezetimibe and week 14 for subjects on Q2W IP schedule.
Males and females, ≥18 to ≤75 years of age, were eligible for this study. Fasting LDL-C was ≥100 mg/dL (2.6 mmol/L) and ≤190 mg/dL (4.9 mmol/L) and fasting triglycerides ≤400 mg/dL (4.5 mmol/L) by central laboratory at screening.
The primary endpoint was the percent change from baseline in LDL-C at week 12. Secondary endpoints included percent changes in apolipoprotein B (ApoB), lipoprotein (a) (Lp(a)), and in the ratio of total cholesterol to high-density lipoprotein (HDL)-C. Tolerability and safety were also evaluated.

Sequence of PCSK9 (Q8NBP7 153-692): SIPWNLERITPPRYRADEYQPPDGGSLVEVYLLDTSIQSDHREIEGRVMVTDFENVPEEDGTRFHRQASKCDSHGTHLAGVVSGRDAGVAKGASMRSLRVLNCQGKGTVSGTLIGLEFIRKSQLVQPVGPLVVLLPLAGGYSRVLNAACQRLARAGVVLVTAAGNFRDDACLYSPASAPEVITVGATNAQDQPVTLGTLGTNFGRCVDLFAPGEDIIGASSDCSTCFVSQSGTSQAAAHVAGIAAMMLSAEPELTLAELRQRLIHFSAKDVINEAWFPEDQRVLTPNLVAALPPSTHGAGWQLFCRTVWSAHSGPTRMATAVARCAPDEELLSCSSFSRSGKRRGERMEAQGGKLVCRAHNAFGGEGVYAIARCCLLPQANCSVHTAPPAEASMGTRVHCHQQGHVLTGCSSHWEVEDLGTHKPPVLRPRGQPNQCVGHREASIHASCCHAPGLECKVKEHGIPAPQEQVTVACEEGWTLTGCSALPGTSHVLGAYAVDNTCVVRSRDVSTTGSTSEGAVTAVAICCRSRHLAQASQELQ

O=C1[C@H](CC[C@H](O)c2ccc(F)cc2)[C@@H](c2ccc(O)cc2)N1c1ccc(F)cc1 [Ezetimibe, ezetimibe, reference compound]
Least squares mean percent change from baseline in LDL-C, week 12 (Ezetimibe QD (N = 45)): −14.26% | percent change from baseline in LDL-C (ezetimibe QD PO, week 12, final data): 14%
